From US20160287609A1, “ROR GAMMA MODULATORS” (ETH ZÜRICH, priority 2013, published 2016)

Target: T1, RORγ (Homo sapiens, UniProt P51449)
T1 construct: the cells were transfected with an expression vector for full-length RORγ; expressed in transfected cells; host or cells: 3T3L1 (mouse pre-adipocyte) cells, pcDNA3 expression vector, CMV promoter
T1 sequence (P51449 1-518): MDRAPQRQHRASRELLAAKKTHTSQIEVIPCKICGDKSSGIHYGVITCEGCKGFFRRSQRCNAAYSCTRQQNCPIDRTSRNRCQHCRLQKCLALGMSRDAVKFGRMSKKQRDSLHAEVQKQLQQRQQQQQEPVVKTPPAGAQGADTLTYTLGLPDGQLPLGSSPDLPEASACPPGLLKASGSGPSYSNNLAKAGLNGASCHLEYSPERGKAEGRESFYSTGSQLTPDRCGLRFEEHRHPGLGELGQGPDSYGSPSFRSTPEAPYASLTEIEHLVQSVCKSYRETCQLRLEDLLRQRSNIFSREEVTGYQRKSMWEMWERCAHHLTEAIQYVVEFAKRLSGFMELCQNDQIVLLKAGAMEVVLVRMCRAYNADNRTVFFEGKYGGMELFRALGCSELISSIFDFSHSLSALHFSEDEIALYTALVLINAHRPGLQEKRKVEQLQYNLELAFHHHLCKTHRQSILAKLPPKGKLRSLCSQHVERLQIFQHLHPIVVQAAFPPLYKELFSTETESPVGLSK
Test: Luciferase transfection assay: repression of RORγ transcriptional activity (MMP3 promoter reporter, dual luciferase)
Type: cell-based
Conditions: 10 μM added to growth medium of transfected 3T3L1 cells; firefly/renilla luciferase ratio 48 h after transfection; average, n at least 6
Method: Adipocyte-like 3T3L1 cells grown to 60-70% confluence in 24 well dishes were used for the assay. The cells were transfected with the reporter gene (pMMP3-pGL3) or the respective empty pGL3 vector as control at a concentration of 0.1 μg/well. The pMMP3-pGL3 reporter expresses the luciferase gene under the control of the promoter of the RORγ target gene matrix metalloproteinase 3 (MMP3). In addition the cells were transfected with an expression vector for full-length RORγ or the respective empty pcDNA3 control vector at 0.1 ug/well. The pCMV-Renilla plasmid served as internal control to normalize for transfection efficacy at a concentration of 0.05 μg/well. All plasmids were transfected at the same time into the cell using the transfection reagent Fugene according to the manufacture's protocol (Promega). […] Firefly as well as renilla luciferase activity was measured 48 h after transfection using the Dual Luciferase Detection System (Promega) following the instructions provided by the manufacturer.
Compounds 13a, 13b and 14a were tested for their ability to inhibit gene transcription induced by the orphan nuclear receptor RORγ using a dual luciferase assay. […] This system allows to determine if a substance of interest is actively repressing the transcriptional activity of RORγ by using reduced luciferase activity as a read-out (FIG. 2).
For the actual experiment 60-70% confluent 3T3L1 pre-adipocytes were transfected with the MMP3 reporter, RORγ and the normalization vector expressing renilla luciferase. […] 48 h after introducing the plasmids, the cells were harvested, lysed and the activity of firefly as well as renilla luciferase measured in each well. The efficacy of a substance to repress RORγ activity was calculated from the ratio of firefly over renilla luciferase activity and normalization to the control wells and the DMSO treated wells. […]

Point of comparison: C[C@H](C[C@@H](O)C(=O)O)C1C[C@H](O)[C@H]2C3C(CC[C@]12C)[C@@]1(C)CC[C@@H](O)C[C@H]1C[C@H]3O (stereo partly drawn) [Compound 13a, 3α,7α,15α,(23R)-tetrahydroxy-5β-cholanoic acid], “transcriptional activity of RORγ, as % of the intensity measured in the presence of DMSO” value 52%. Against it:
- C[C@H](C[C@H](O)C(=O)O)C1C[C@H](O)[C@H]2C3C(CC[C@]12C)[C@@]1(C)CC[C@@H](O)C[C@H]1C[C@H]3O (stereo partly drawn) [Compound 13b, 3α,7α, 15α,(23S)-tetrahydroxy-5β-cholanoic acid] — higher, 57%
- C[C@H](C[C@@H](O)C(=O)NCCS(=O)(=O)O)C1C[C@H](O)[C@H]2C3C(CC[C@]12C)[C@@]1(C)CC[C@@H](O)C[C@H]1C[C@H]3O (stereo in doubt) [Compound 14a, 3α,7β,15α,(23R)-tetrahydroxy-5β-24-oxocholanyl-amino ethansulfonic acid] — higher, 56%
